Entries after “also recorded” stand apart in the source; their conditions may differ.
System: CPP32
Assay: Apaf-2 activity: recombining with phosphocellulose flow through fraction (Apaf-1) and 35S-labeled CPP32
Assay type: biochemical, human
Conditions: one unit = cleavage of 1% of the input substrate in 60 min
Protocol: FIG. 3 illustrates fractionation and reconstitution of dATP-dependent activation of CPP32 by phosphocellulose chromatography. HeLa cell S-100 was subjected to phosphocellulose chromatography and the column flow through and bound material were collected as described in the Examples. Aliquots (10 μl) of HeLa S-100 (50 μg) (lanes 1 and 2), phosphocellulose flow through fraction (PC-FT) (lanes 3 and 4), phosphocellulose bound fraction (PC-B) (lanes 5 and 6), and the mixture of phosphocellulose flow through and bound material (lanes 7 and 8) were incubated with aliquots of 3 μl in vitro translated, ^35S-labeled CPP32 at 30° C. for 1 hr in the absence (lanes 1,3,5,7) or presence (lanes 2,4,6,8) of 1 mM dATP. The samples were subjected to SDS-PAGE, transferred to a nitrocellulose filter, and the filter was exposed to film for 16 hours at room temperature.
The Apaf-2 activity that bound to the phosphocellulose column was purified through the Mono S column as described in Example 7. […] In FIG. 4B, aliquots (30 μl) of the Mono-S fractions were subjected to 15% SDS-PAGE and the proteins were visualized by silver staining.
Aliquots of 0.2 μg of Apaf-2 purified through the Mono S column (lanes 1, 2), cytochrome c from bovine heart (lanes 3, 4), and rat liver (lanes 5, 6) were incubated with aliquots of 10 μl phosphocellulose flowthrough fraction and 3 μl in vitro translated, 35S-labeled CPP32 at 30° C. for 1 hr in a final volume of 20 μl buffer A in the absence (lanes 1,3,5) or presence of (lanes 2, 4, 6) 1 mM dATP. Samples were subjected to SDS-PAGE and transferred to a nitrocellulose filter which was then exposed to a film for 16 hr at room temperature.
To isolate the protein(s) required for the activation of CPP32, HeLa S-100 was loaded onto a phosphocellulose column, and the flow-through and bound fractions were collected. […] When the flowthrough and bound fractions were mixed, CPP32-activating activity was restored (lanes 7-8). […] The factor(s) that flow through the phosphocellulose column are designated apoptotic protease activating factor-1 (Apaf-1) and the factor that bound to the column is designated apoptotic protease activating factor-2 (Apaf-2). It is understood that “Apaf-1” may represent more than one protein or it may represent a combination of protein(s) and other factors.
Apaf-2 activity was assayed by recombining with Apaf-1 after purification by the following steps. First, the Apaf-2 fraction was subjected to 50% ammonium sulfate precipitation. All of the activity remained in the supernatant while most of the protein precipitated (Table I). The supernatant was loaded onto a phenyl-sepharose (hydrophobic interaction) column and the activity was eluted with 1 M ammonium sulfate. The eluate was passed through a gel filtration column; active fractions were subjected to sequential Mono Q (anion exchange) and Mono S (cation exchange) chromatography. The Apaf-2 activity flowed through the Mono Q column, and the flow through was directly loaded onto the Mono S column. Bound Apaf-2 activity was then eluted with a 100-300 mM NaCl linear salt gradient. The fractions from the Mono S column were collected and assayed. […] The active fractions were analyzed by SDS-PAGE (FIG. 4B). A protein of apparent molecular mass of 15 kDa was co-eluted with the activity. No other proteins were detected by silver staining in the active Apaf-2 fractions.
CPP32 was translated and purified as described above. […]

| Compound | Specific Activity | Total Activity |
| --- | --- | --- |
| Mono Q/Mono-S: Apaf-2 purification step 6: Apaf-2 purified through the Mono S column | 263150 units/mg | 20000 unit |

System: CPP32
Assay: Assay for dATP-dependent activation of CPP32 protease (cleavage of in vitro translated 35S-labeled CPP32 in HeLa S-100)
Assay type: biochemical, hamster
Conditions: 1 mM nucleotide, 30° C., 1 hr
Protocol: The samples were subjected to SDS-PAGE and transferred to a nitrocellulose filter. The filter was exposed to film for 16 hours at room temperature. In FIG. 2B, a 50 μl aliquot of HeLa S-100 (250 μg) was incubated with each aliquot of 6 μl hamster liver nuclei at 37° C. for 2 hr in the presence of 1 mM indicated nucleotide. The DNA was isolated, analyzed by 2% agarose gel electrophoresis and visualized by ethidium bromide staining.
To test the nucleotide specificity for activation of CPP32 and DNA fragmentation, HeLa cell S-100 was incubated with in vitro translated, ^35S-labeled CPP32 in the presence of 1 mM of various nucleotides (FIG. 2A).
A PCR fragment encoding amino acids 29-277 of hamster CPP32 [Wang et al. (1996) supra] was cloned into NdeI and BamHI sites of pET 15b vector (Novagen, Madison, Wis.). The resulting fusion protein of six histidines with hamster CPP32 (amino acids 29-277) was translated in a TNT T7 transcription/translation kit (Promega, Madison, Wis.) in the presence of ^35S-methionine according to the manufacturer's instructions. The translated protein was passed through a 1 ml nickel affirmity column (Qiagen, Chatsworth, Calif.) equilibrated with buffer A. After washing the column with 10 ml of buffer A, the translated CPP32 was eluted with buffer A containing 250 mM imidazole. Human SREBP-2 was translated in a TNT SP6 transcription/translation kit as described [Wang et al. (1995) [Hua et al. (1993) Proc. Natl. Acad. Sci. USA 90, 11603-11607]. Full length human PARP cDNA [Chemey et al. (1987) Proc. Natl. Acad. Sci. USA 84, 8370-8374] was cloned into SmaI and EcoRI sites of pBK-CMV vector (Stratagene, La Jolla, Calif.) and translated in a TNT T7 transcription/translation kit [Promega, Madison, Wis.]. The translated SREBP-2 and PARP (200 μl each) were purified by passing each translation mixture through a 10-ml Sephadex G-25 gel-filtration column equilibrated with buffer A. The translated proteins contained within the exclusion volume of the column were collected.
CPP32 was translated and purified as described above. Aliquot of 3 μl of the in vitro translated CPP32 was incubated with the indicated protein fraction, nucleotides, and 1 mM additional MgCl2 at 30° C. for 1 hour in a final volume of 20 μl of buffer A. At the end of the incubation, 7 μl of 4×SDS sample buffer was added to each reaction. After boiling for 3 min, each sample was subjected to a 15% SDS-polyacrylamide gel electrophoresis (SDS-PAGE). The gel was transferred to a nitrocellulose filter which was subsequently exposed to a Kodak X-OMAT AR X-ray film (Eastman Kodak, Rochester, N.Y.) for 16 hr at room temperature.

| Compound | cleavage of 35S-labeled CPP32 (nucleotide specificity) |
| --- | --- |
| Nc1ncnc2c1ncn2[C@@H]1O[C@H](COP(=O)(O)OP(=O)(O)O)[C@@H](O)[C@H]1O [ADP] | did not replace dATP |
| Nc1ncnc2c1ncn2[C@@H]1O[C@H](COP(=O)(O)O)[C@@H](O)[C@H]1O [AMP] | did not replace dATP |
| Nc1ccn([C@@H]2O[C@H](COP(=O)(O)OP(=O)(O)OP(=O)(O)O)[C@@H](O)[C@H]2O)c(=O)n1 [CTP] | did not replace dATP |
| Nc1nc2c(ncn2[C@@H]2O[C@H](COP(=O)(O)OP(=O)(O)OP(=O)(O)O)[C@@H](O)[C@H]2O)c(=O)[nH]1 [GTP] | did not replace dATP |
| O=c1ccn([C@@H]2O[C@H](COP(=O)(O)OP(=O)(O)OP(=O)(O)O)[C@@H](O)[C@H]2O)c(=O)[nH]1 [UTP] | did not replace dATP |
| Nc1ncnc2c1ncn2[C@@H]1O[C@H](CO)[C@@H](O)[C@H]1O [adenosine] | did not replace dATP |
| Nc1ncnc2c1ncn2[C@H]1C[C@H](O)[C@@H](COP(=O)(O)OP(=O)(O)O)O1 [dADP] | Cleavage occurred; also recorded: can substitute for dATP |
| Nc1ncnc2c1ncn2[C@H]1C[C@H](O)[C@@H](COP(=O)(O)O)O1 [dAMP] | did not replace dATP |
| Nc1ccn([C@H]2C[C@H](O)[C@@H](COP(=O)(O)OP(=O)(O)OP(=O)(O)O)O2)c(=O)n1 [dCTP] | did not replace dATP |
| Nc1nc2c(ncn2[C@H]2C[C@H](O)[C@@H](COP(=O)(O)OP(=O)(O)OP(=O)(O)O)O2)c(=O)[nH]1 [dGTP] | did not replace dATP |
| Cc1cn([C@H]2C[C@H](O)[C@@H](COP(=O)(O)OP(=O)(O)OP(=O)(O)O)O2)c(=O)[nH]c1=O [dTTP] | did not replace dATP |
| Nc1ncnc2c1ncn2[C@H]1C[C@H](O)[C@@H](CO)O1 [deoxyadenosine] | did not replace dATP |

From patent publication US6558900B2, “Regulation of apoptosis and in vitro model for studies thereof” (Emory University, priority 1996, dated 2003)
